Results on three molecules are retold here after patent publication US20250026741A1, “INHIBITORS OF THE ONCOGENIC SHP2 PHOSPHATASE AND USES THEREOF” (Sanford Burnham Prebys Medical Discovery Institute, priority 2021, published 2025).

Molecules are shown by their SMILES. pIC50: −log10 of the molar value.

One assay concerns the target PTP1B catalytic domain (Homo sapiens (Human), UniProt P18031). The experiment in a line: DiFMUP phosphatase inhibition assay, PTP1B. Type of assay: biochemical. The note with it: for pIC50: catalytic domain, DiFMUP at Km (25 μM); for fold selectivity for SHP2 over PTP1B: from IC50 values against catalytic domains. On the procedure: Selectivity is one of the biggest challenges in PTP inhibitor development. […] Similar to SHP2, we adapted a 384-well plate format DiFMUP assay for recombinant PTP1B and STEP and performed Michaelis-Menten experiments to determine DiFMUP Km values for each phosphatase. IC50 values of our inhibitors for PTP1B and STEP were determined in 10-point dose-response assays with DiFMUP used at the concentration corresponding to the respective Km value. […] Other inhibitors with good relative selectivity for SHP2 included #02 (13-fold selective over PTP1B; 73-fold selective over STEP) and #05 (5-fold selective over PTP1B; >71-fold selective over STEP).
SHP2 inhibitors were tested at room temperature (RT) in a 384-well plate format standard phosphatase fluorescence intensity assay using DiFMUP (Invitrogen/Thermo Fisher Scientific, Carlsbad, CA) as a substrate and a total reaction volume of 25 μL. SHP2 inhibitors or vehicle (DMSO) were spotted in triplicate into a black Greiner FLUOTRAC™ 200 384-well microplate (#781076, Greiner) for a 10-point dose-response assay using an Echo®555 Liquid Handler (Labcyte, Inc., San Jose, CA). PTP working solutions were prepared at a 0.625 nM concentration (for a final concentration of 0.5 nM) in buffer containing 50 mM Bis-Tris pH 6.0, 50 mM NaCl, 5 mM DTT, and 0.01% Tween® 20. Prior to the assay, a dually phosphorylated insulin receptor substrate 1 (IRS-1) peptide [625 nM (500 nMfinal) (30)] was added to full-length WT SHP2 working solutions and incubated for 20 min. DiFMUP working solutions at 5× final concentration were prepared in 50 mM Bis-Tris pH 6.0, 50 mMNaCl, and 0.01% Tween 20. 20 μL of PTP working solution was dispensed into the microplate and incubated with inhibitor for 20 min at RT. […] The reaction was initiated by addition of 5 μL DiFMUP working solutions. Fluorescence intensity was measured in kinetic mode (every minute for 7 or 10 min) using a Tecan Spark® Multimode Microplate Reader (Tecan, Groedig, Austria) with an excitation wavelength of 360 nm and an emission wavelength of 460 nm. The initial rates were determined from the linear progression curves of the PTP reaction. The nonenzymatic hydrolysis of the substrate was corrected by using a control without addition of enzyme. IC50 values were calculated from the corrected initial rates by nonlinear regression using the program GraphPad Prism (GraphPad Software, Inc., San Diego, CA) Version 8. Dose-response inhibition assays of SHP2cat using the substrate OMFP were performed similarly as described above for DiFMUP. OMFP was used at a concentration corresponding to its Km value for SHP2cat (50 μM final). Fluorescence intensity was measured in kinetic mode (every minute for 10 min) using a Tecan Spark Multimode Microplate Reader with an excitation wavelength of 485 nm and an emission wavelength of 535 nm. Initial rates were determined and IC50 vales calculated as described above.

The subject of assay [1] is KYSE-520 esophageal cancer cells. The experiment in a line: Cell viability assay (CellTiter-Glo), KYSE-520. Type of assay: cell-based. The note with it: KYSE-520 cells, various concentrations, 3 d. An excerpt:
(§1) Inhibition of SHP2 has been reported to inhibit the growth of cancer cells including Kasumi-1 acute myeloid leukemia (AML) and KYSE-520 esophageal cancer cells. […] Cell viability is shown as a percentage of the vehicle (DMSO) control and represents the mean±SD. B) #02 dose-response curves in cell viability assays using Kasumi-1, KYSE-520, MOLM-13, and […] cells after 3 d in culture. The percentages compared to DMSO vehicle control were curve fitted using nonlinear regression (log[inhibitor] vs. normalized response, variable slope) and represent the mean±SD. C) Cell viability of […] and MDA-MB-468 triple-negative breast cancer (TNBC) cells in the presence of various concentrations of #02 or the SHP2 allosteric inhibitor SHP099 after 5 d in culture. Cell viability is shown as a percentage of DMSO vehicle control, representing mean±SD, and curve fitted as in B). D) Colony formation assay (11 d) of […] and MDA-MB-468 TNBC cells in the presence of various concentrations of #02 or the SHP2 allosteric inhibitor SHP099. E) Phospho-ERK1/2 (p-ERK1/2) immunoblot analysis from total cell lysates of MOLM-13 AML cells treated with #02 at the indicated concentrations, or with SHP2 allosteric inhibitor RMC-4550 (RMC, 1 μM) for 3 h or 24 h. The quantitation of p-ERK1/2 levels is shown as the percentage of the DMSO (vehicle) control and represents data from three independent experiments (mean±SD). F) Viability of AML patient-derived cells in the presence of 10 μM #02 or 10 μM SHP2 allosteric inhibitor RMC-4550 after 2 d, 4 d, or 6 d in culture. Cell viability is shown as a percentage of the DMSO vehicle control and represents the mean±SD (*p<0.05; **p<0.01; ****p<0.0001; unpaired test with Welch's correction) G) Viability of MOLM-13 cells and MOLM-13-Cas9-mCherry cells with SHP2 knockout (KO) in the presence of #01, #02, and allosteric inhibitor SHP099 at various concentrations (10-point dose-response). The percentages compared to the DMSO vehicle control were curve fitted using nonlinear regression (log[inhibitor] vs. normalized response, variable slope) and represent the mean±SD. SHP2 protein levels in regular MOLM-13 cells (WT), MOLM-13-Cas9-mCherry cells (Cas9), and MOLM-13-Cas9-mCherry cells with SHP2 KO (SHP2 KO) were evaluated by immunoblot analysis using SHP2 antibodies.
(§2) Viability of AML, esophageal carcinoma, and TF-1 cells was assessed using the ATP-depletion assay CellTiter-Glo® (Promega). Cells were harvested at 1×10^6/mL to 2×10^6 cells/mL with cell numbers determined by trypan blue using the Countess Cell counter (Thermo Scientific) and resuspended in culture media. […] Luminescence was read on a Tecan Spark® Multimode Microplate Reader and data analyzed using Graph Pad Prism software.
In general terms: Cellular ATP, detected with luciferase, serves as a proxy for viable cell number.

The test system of assay [2] is Kasumi-1 acute myeloid leukemia (AML) cells. The experiment in a line: Cell viability assay (CellTiter-Glo), Kasumi-1. Type of assay: cell-based. The note with it: Kasumi-1 cells, various concentrations, 3 d.
Source text: as §1, §2

Sequence of PTP1B catalytic domain (P18031 1-300): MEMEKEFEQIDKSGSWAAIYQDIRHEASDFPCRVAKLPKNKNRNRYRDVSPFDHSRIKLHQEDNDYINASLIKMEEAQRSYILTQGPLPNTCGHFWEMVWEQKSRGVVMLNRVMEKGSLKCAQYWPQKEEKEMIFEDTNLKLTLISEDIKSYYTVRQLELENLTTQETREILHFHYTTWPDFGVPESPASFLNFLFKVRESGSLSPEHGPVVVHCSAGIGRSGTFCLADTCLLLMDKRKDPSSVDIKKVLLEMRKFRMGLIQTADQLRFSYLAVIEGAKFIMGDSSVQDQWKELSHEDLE

Regarding `N#Cc1cc(-c2ccc(/C=C3\Sc4ccccc4C3=O)o2)ccc1O` [#05, (Z)-2-Hydroxy-5-(5-((3-oxobenzo[b]thiophen-2(3H)-ylidene)methyl)furan-2-yl)benzonitrile], on PTP1B catalytic domain, the pIC50 was 5.13. Moreover, the “fold selectivity for SHP2 over PTP1B” value on PTP1B catalytic domain is reported as 5 fold. In addition, the “effect on cancer cell growth” value in assay [1] and in assay [2] was “dose-dependently inhibited cancer cell growth” in each case.
Turning to `Nc1ccc(NC(=O)c2cc(-c3ccc(/C=C4\Sc5ccccc5C4=O)o3)ccc2O)cc1` [#01, (Z)—N-(4-Aminophenyl)-2-hydroxy-5-(5-((3-oxobenzo[b]thiophen-2(3H)-ylidene)methyl)furan-2-yl)benzamide], at PTP1B catalytic domain, the pIC50 was 5.17 and the “fold selectivity for SHP2 over PTP1B” value is listed as 31 fold. For the same molecule, in assay [1], the “effect on cancer cell growth” value was “dose-dependently inhibited cancer cell growth”. The “effect on cancer cell growth” value in assay [2] is recorded as “dose-dependently inhibited cancer cell growth”.
In turn, `O=C(Nc1ccccc1)c1cc(-c2ccc(/C=C3\Sc4ccccc4C3=O)o2)ccc1O` [#02, (Z)-2-hydroxy-5-(5-((3-oxobenzo[b]thiophen-2(3H)-ylidene)methyl)furan-2-yl)-N-phenylbenzamide] gave a pIC50 against PTP1B catalytic domain of 5.03. Further, the “fold selectivity for SHP2 over PTP1B” value at PTP1B catalytic domain turned out to be 13 fold. Moreover, the “effect on cancer cell growth” value in assay [1] and in assay [2] was “dose-dependently inhibited cancer cell growth” throughout.

What is called pIC50 is −log10 of the IC50, conventionally taken in molar units. The low end stands for a high IC50, the high end for a low IC50.
